Reference: US20220380341A1, “INHIBITORS OF HIV-1 NEF FOR THE TREATMENT OF HIV DISEASE” (priority 2018, published 2022)
Like-named read-outs stand apart in the source and are kept apart here.

Legend:
HIV-1NL4-3 = assay: HIV-1 infectivity assay in TZM-bl reporter cell line (LTR-luciferase, 48 h); format: cell-based; conditions: for inhibition at 1 µM: Human immunodeficiency virus 1, TZM-bl
Method in brief: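 Compounds were tested at 1 μM in TZM-bl cells infected with HIV-1NL4-3. Infectivity was read as luciferase signal 48 h after infection and expressed as percent inhibition, normalized between DMSO-treated wild-type infection (0%) and DMSO-treated Nef-defective HIV-1 infection (100% of the Nef-dependent effect).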

TZM-bl cell line = format: cell-based; conditions: human, 1 μM
Method in brief: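 TZM-bl cells (HIV-1 LTR-luciferase) infected with HIV-1NL4-3 with compound at 1 μM; luciferase read 48 h later. Percent inhibition normalized to DMSO wild-type infection (0%) and Nef-defective HIV-1 infection (100% of Nef-dependent effect). Viability in uninfected TZM-bl cells by Cell Titer Blue.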

HIV-1 NefNL4-3 = HIV-1 NefNL4-3 (Human immunodeficiency virus type 1 group M subtype B, UniProt P03406, A33V/T15A/T51N/V11I); assay: Surface plasmon resonance binding to recombinant full-length Nef (NL4-3); conditions: for RU30/RUNef (extent of binding): response units at 30 μM relative to Nef immobilized on the SPR chip
HIV-1 NL4-3 = assay: HIV-1 replication in normal donor PBMCs (p24 Gag AlphaLISA); format: cell-based; conditions: for HIV Replication PBMC IC50 vs. HIV NL4-3: Table 1, 4 days, words (Not active, Borderline) where no bound is given
Method in brief: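 PHA/IL-2-activated donor PBMCs infected with HIV-1 NL4-3, wild-type or Δ-Nef, with inhibitor (1–1,000 nM, 0.1% DMSO) in IL-2 medium. Lysates taken after 4 days and p24 quantified by AlphaLISA against a p24 standard; IC50 by non-linear regression, CC50 by CellTiter-Blue in uninfected cells.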

uninfected PBMCs = format: cell-based; conditions: human
Experimental: FIG. 4. Inhibition of HIV-1 replication by compounds disclosed herein in PBMCs. Donor PBMCs were infected with HIV-1 in the presence of inhibitor concentrations ranging from 1 to 1,000 nM or the DMSO carrier solvent as a negative control (0.1% DMSO final). Replication was assessed by p24 Gag AlphaLISA (Perkin Elmer) […]. Each donor was also infected with Nef-defective HIV-1 to establish the baseline for Nef-dependent enhancement of replication in each culture. Cytotoxicity was assessed in uninfected PBMCs over the same incubation period using the CellTiter-Blue assay (Promega). Data were fit by non-linear regression analysis (GraphPad Prism v.7.04) to determine the IC50 and CC50 values shown.
Non-HLA-typed buffy coats (Source: Pittsburgh Central Blood Bank, #E3755) are received and processed within 24 hours of blood donation. PBMCs are isolated via rocking for RBC separation following 1:1 dilution with PBS, followed by Ficoll gradient centrifugation. The lymphocyte fraction is removed and washed several times for a final concentration of ˜150-300×10^6 cells per donor. Cells are activated for 3 days with 1-5 μg/mL PHA (Sigma) and 50 U/mL IL-2. Cells are plated at 750,000 cells/ml and viability is checked at day 3 using the Cell Titer Blue assay (Promega). If cells are >90% viable, then they are infected with HIV-1 NL4-3, wild-type or Δ-Nef mutant (input typically 30-500 pg/mL p24 capsid equivalents) in the presence or absence of Nef inhibitor analogs. IL-2 is included in the media at the time of infection. After 4 days, cells are lysed with 1% Triton X-100 for 1.5 h, checked for viability via Cell Titer Blue, and frozen/stored at −20° C. HIV-1 replication is assessed with a high-sensitivity HIV-1 p24 AlphaLISA assay (Perkin Elmer) in ½-volume 96-well plates, using one-half of the recommended assay volumes for all reagents (including samples). Assays are read on the BioTek Cytation5 instrument; readout is in AlphaUnits and replication in p24 pg/mL is determined using an HIV-1 p24 capsid protein standard included in the Alpha kit.

HIV-1 Nef SF2 = biological target: T1, HIV-1 Nef SF2 (Human immunodeficiency virus type 1 group M subtype B, UniProt P03407); assay: biochemical; format: binding; conditions: two-step induced-fit model, Reichert SPR, read-out: Reichert SPR Nef SF2 (M) two-step fitting
T1 construct: made in house

[1] = biological target: Nef from SIV (strain mac239) (Simian immunodeficiency virus, UniProt Q5QGG3); assay: biochemical
Experimental: Also shown are SPR data recorded on a Reichert 4-channel SPR instrument. […] Recombinant Nef is immobilized on the biosensor surface, and each compound is injected and association/dissociation kinetics are recorded. The resulting data for the 3 isoforms are each best-fit using both a two-site model and a two-step, induced-fit model. Dissociation constants (KD), calculated from the kinetic association and dissociation constants from all three isoforms, are shown in columns 6-7. Data were fit using three regimes and the resulting KD: from each model are shown in the Table: 1:1 Langmuir fit; 2-site fit, which yields low and high affinity components; and a 2-step induced fit model.

[2] = 1.0 μM, TZM-bl reporter cell line, Table 4, read-out: % Infectivity Inhibition
[3] = 48 h, Table 1, TZM-bl cells, 1 μM, 48 h, 100% = Nef-defective HIV-1, read-out: HIV-1 Infectivity % Inhibition Norm. to Δ-Nef @ 1 μM
[4] = 1 μM, TZM-bl, normalized: DMSO wild-type HIV-1 = 0%, Nef-defective HIV-1 = 100%, read-out: HIV-1 Infectivity % Inhibition norm. to Δ-Nef @ 1 μM
[5] = KD, M, Table 4, SPR fit 2-step induced fit, KD = koff/kon × koff2/(koff2 + kon2)
[6] = Nef NL4-3 Binding, SPR 2-state fitting KD, Table 1, 2-step induced-fit model
[7] = Reichert SPR Nef NL43 (M) two-step fitting, KD, two-step induced-fit model, Reichert SPR, Table 3
[8] = Table 4, 2-step induced fit, T = 1/koff2
[9] = read-out: Nef NL4-3 Binding, SPR 1:1 or 2-site fitting KD2, Table 1, 2-site fit, second component

Row | Compound | inhibition at 1 µM (HIV-1NL4-3; [2]) | inhibition at 1 µM (HIV-1NL4-3; [3]) | % Cell Viability (TZM-bl cell line) | Percent Viability @ 1 μM (TZM-bl cells) (TZM-bl cell line) | Kd (HIV-1 NefNL4-3) | RU30/RUNef (extent of binding) (HIV-1 NefNL4-3) | Toxicity in HIV Replication PBMC (Toxic @ concentration) (uninfected PBMCs) | inhibition at 1 µM (HIV-1NL4-3; [4]) | Kd (HIV-1 NefNL4-3; [5]) | Kd (HIV-1 NefNL4-3; [6]) | Kd (HIV-1 NefNL4-3; [7]) | T, minutes (residence time) (HIV-1 NefNL4-3; [8]) | Kd (HIV-1 Nef SF2) | Kd [1] | also measured
1 | O=C(OCc1ccccc1)N1CCC(c2nn(-c3nc4cccc(Cl)c4[nH]3)c(O)c2CCc2ccc(F)cc2)CC1 [Compound I-166, benzyl 4-[1-(7-chloro-1H-1,3-benzodiazol-2-yl)-4-[2-(4-fluorophenyl)ethyl]-5-hydroxy-1H-pyrazol-3-yl]piperidine-1-carboxylate] | 24.6% | 24.6% | 97.0% | 97.0% | 6.03e-09 M | 4.21E- 03 | Toxic @ 1 μM | – | – | – | – | – | – | – | Kd (HIV-1 NefNL4-3; KD, M, Table 4, SPR fit 1:1 Langmuir, KD = koff/kon): 6.03e-09 M; T, minutes (residence time) (HIV-1 NefNL4-3; Table 4, 1:1 Langmuir fit, T = 1/koff): 2.07E + 03 minutes; HIV Replication PBMC IC50 vs. HIV NL4-3 (HIV-1 NL4-3): Not active
2 | Oc1c(CCc2ccc(F)cc2)c(C2CC2)nn1-c1nc2cccnc2[nH]1 [Compound I-308, 3-cyclopropyl-4-[2-(4-fluorophenyl)ethyl]-1-{3H-imidazo[4,5-b]pyridin-2-yl}-1H-pyrazol-5-ol] | 61.4% | 61.4% | 100% | 100.1% | 9.41e-07 M | 6.06E- 03 | – | 61.4% | 4.06e-06 M | 4.06e-06 M | 4.06e-06 M | 5.81E + 00 minutes | 2.91e-06 M | 3850 nM | Kd (HIV-1 NefNL4-3; Nef NL4-3 Binding, SPR 1:1 or 2-site fitting KD2, Table 1, 2-site fit, second component): 2.21e-06 M
3 | CC(C)(C)OC(=O)N1CCC(CCc2c(-c3ccc(S(C)(=O)=O)cc3)nn(-c3nc4cc(Cl)ccc4[nH]3)c2O)CC1 [Compound I-215, tert-butyl 4-{2-[1-(5-chloro-1H-1,3-benzodiazol-2-yl)-5-hydroxy-3-(4-methanesulfonylphenyl)-1H-pyrazol-4-yl]ethyl}piperidine-1-carboxylate] | 53.5% | – | 74.5% | – | – | 1.00E- 02 | Toxic @ 1 μM | – | 1.62e-07 M | – | – | 5.87E + 01 minutes | – | – | HIV-1 Infectivity % Inhibition Norm. to Δ-Nef @ 1 μM (HIV-1NL4-3; Table 1, TZM-bl cells, 1 μM, 48 h, 100% = Nef-defective HIV-1): 73.6%; HIV Replication PBMC IC50 vs. HIV NL4-3 (HIV-1 NL4-3): Not active
4 | CC(C)(C)OC(=O)N1CCC(CCc2c(-c3cccc(S(C)(=O)=O)c3)nn(-c3nc4ccccc4[nH]3)c2O)CC1 [Compound I-210, tert-butyl 4-{2-[1-(1H-1,3-benzodiazol-2-yl)-5-hydroxy-3-(3-methanesulfonylphenyl)-1H-pyrazol-4-yl]ethyl}piperidine-1-carboxylate] | 95.4% | 95.4% | 83.7% | 83.7% | 8.86e-07 M | 5.18E- 03 | – | 95.4% | 4.56e-06 M | 4.56e-06 M | 4.56e-06 M | 1.06E + 01 minutes | 4.31e-06 M | 709 nM | Kd (HIV-1 NefNL4-3; [9]): 8.12e-06 M
5 | CN(C)S(=O)(=O)N1CCC(c2nn(-c3nc4ccccc4[nH]3)c(O)c2CCc2ccc(F)cc2)CC1 [Compound I-746, 4-[1-(1H-1,3-benzodiazo1-2-y1)-4-[2-(4-fluorophenyl)ethyl]-5-hydroxy-1H-pyrazol-3-yl]-N,N-dimethylpiperidine-1-sulfonamide] | – | 194% | – | 101.6% | 7.96e-07 M | – | – | 194% | – | – | – | – | 6.84e-06 M | 49.3 nM | –
6 | CC(=O)N1CCC(c2nn(-c3nc4ccc(Cl)cc4[nH]3)c(O)c2CCc2ccc(F)cc2)CC1 [Compound I-702, 1-{4-[1-(5-chloro-1H-1,3-benzodiazol-2-yl)-4-[2-(4-fluorophenyl)ethyl]-5-hydroxy-1H-pyrazol-3-yl]piperidin-1-yl}ethan-1-one] | 100% | 148% | 96.4% | 96.4% | 6.05e-07 M | 1.56E- 02 | Toxic @ 10 nM | – | 3.59e-06 M | 7.87e-07 M | – | 5.05E + 00 minutes | – | – | Kd (HIV-1 NefNL4-3; [9]): 2.72e-06 M
7 | Oc1c(CCc2ccc(F)cc2)c(-c2ccc(C(F)(F)F)cc2)nn1-c1cc(C(F)(F)F)n[nH]1 [Compound I-601, 4-[2-(4-fluorophenyl)ethyl]-5′-(trifluoromethyl)-3-[4-(trifluoromethyl)phenyl]-2′H-[1,3′-bipyrazol]-5-ol] | 67.6% | – | 100% | 101.3% | 1.72e-06 M | 4.19E- 02 | – | 67.6% | 2.64e-05 M | – | 8.96e-09 M | 5.59E + 00 minutes | 4.55e-05 M | 22000 nM | inhibition at 1 µM (HIV-1NL4-3; 48 h, Table 2, TZM-bl cells, 1 μM, 48 h, 100% = Nef-defective HIV-1, read-out: HIV-1 Infectivity % Inhibition Norm. to Δ-Nef @ 1 μM): 67.6%; Kd (HIV-1 NefNL4-3; Nef NL4-3 Binding, SPR 2-state fitting KD, Table 2, 2-step induced-fit model): 8.96e-09 M; Kd (HIV-1 NefNL4-3; read-out: Nef NL4-3 Binding, SPR 1:1 or 2-site fitting KD2, Table 2, 2-site fit, second component): 2.64e-05 M; IC50 (HIV-1 NL4-3; Human immunodeficiency virus 1, NL43, PBMC, 96 h, Table 2, 4 days): ≤ 10 nM
